According to US20190336496A1, “SELECTIVE BCL-2 INHIBITORS IN COMBINATION WITH AN ANTI-PD-1 OR AN ANTI-PD-L1 ANTIBODY FOR THE TREATMENT OF CANCERS” (AbbVie Inc., priority 2018, published 2019):

Legend:
C32 = test: Venetoclax cell killing (CellTiter-Glo); type: cell-based; details: Homo sapiens, C32, 120 h; Melanoma; 10% FBS; 5 days
Experimental: (§1) Solid tumor cell lines were obtained from American Type Culture Collection (ATCC, Manassas, Va.) or the National Cancer Institute (NCI) and cultured in humidified incubators at 37° C. (5% CO2) in appropriate media (specified by supplier) supplemented with 10% fetal bovine serum (FBS) or 10% human serum (HS). 24 hours after plating into 96-well or 384-well tissue culture plates, venetoclax was added to cells at various concentrations (typically 0.010 to 10 μM in half-log increments) to perform concentration-response assessments of cell killing. After 1 to 5 days of culture in the presence of venetoclax, cell viability was assessed using CellTiter-Glo® reagent (Promega). IC50 values were determined by non-linear regression analysis of the concentration response data (Table 5 and Table 6).

COLO-320DM = test: Venetoclax cell killing (CellTiter-Glo); type: cell-based; details: Homo sapiens, 120 h, Colorectal, 10% FBS, 5 days
Experimental: as §1

Calu-6 = test: Venetoclax cell killing (CellTiter-Glo); type: cell-based; details: Homo sapiens, Calu-6, 72 h; Lung; 10% FBS; 3 days
Experimental: as §1

HCT-116 = test: Venetoclax cell killing (CellTiter-Glo); type: cell-based; details: Homo sapiens, HCT-116, 120 h; Colorectal; 10% FBS; 5 days
Experimental: as §1

LS411N = test: Venetoclax cell killing (CellTiter-Glo); type: cell-based; details: Homo sapiens, LS-411N, 120 h; Colorectal; 10% FBS; 5 days
Experimental: as §1

NCI-H1299 = test: Venetoclax cell killing (CellTiter-Glo); type: cell-based; details: Homo sapiens, NCI-H1299, 120 h; Lung; 10% FBS; 5 days
Experimental: as §1

NCI-H2009 = test: Venetoclax cell killing (CellTiter-Glo); type: cell-based; details: Homo sapiens, NCI-H2009, 72 h; Lung; 10% FBS; 3 days
Experimental: as §1

NCI-H358 = test: Venetoclax cell killing (CellTiter-Glo); type: cell-based; details: Homo sapiens, NCI-H358, 72 h; Lung; 10% FBS; 3 days
Experimental: as §1

NCI-H522 = test: Venetoclax cell killing (CellTiter-Glo); type: cell-based; details: Homo sapiens, NCI-H522, 72 h; Lung; 10% FBS; 3 days
Experimental: as §1

NCI-H524 = test: Venetoclax cell killing (CellTiter-Glo); type: cell-based; details: Homo sapiens, NCI-H524, 24 h; Lung; 10% FBS; 1 day
Experimental: as §1

NCI-H69 = test: Venetoclax cell killing (CellTiter-Glo); type: cell-based; details: Homo sapiens, NCI-H69, 24 h; Lung; 10% FBS; 1 day
Experimental: as §1

SJSA-1 = test: Venetoclax cell killing (CellTiter-Glo); type: cell-based; details: Homo sapiens, SJSA-1, 120 h; Osteosarcoma; 10% FBS; 5 days
Experimental: as §1

SW948 = test: Venetoclax cell killing (CellTiter-Glo); type: cell-based; details: Homo sapiens, SW948, 120 h; Colorectal; 10% FBS; 5 days
Experimental: as §1

4T1 = test: Venetoclax cell killing (CellTiter-Glo); type: cell-based, murine; details: Mus musculus, 4T1, 72 h; Breast Cancer; 10% FBS; 3 days
Experimental: as §1

B16F10 = test: Venetoclax cell killing (CellTiter-Glo); type: cell-based, murine; details: Mus musculus, B16-F10, 72 h; Melanoma; 10% FBS; 3 days
Experimental: as §1

B16F1 = test: Venetoclax cell killing (CellTiter-Glo); type: cell-based, murine; details: Mus musculus, B16-F1, 72 h; Melanoma; 10% FBS; 3 days
Experimental: as §1

CT26 = test: Venetoclax cell killing (CellTiter-Glo); type: cell-based, murine; details: Mus musculus, CT26, 72 h; Colorectal; 10% FBS; 3 days
Experimental: as §1

EMT6 = test: Venetoclax cell killing (CellTiter-Glo); type: cell-based, murine; details: Mus musculus, EMT6, 72 h; Breast Cancer; 10% FBS; 3 days
Experimental: as §1

LL2 = test: Venetoclax cell killing (CellTiter-Glo); type: cell-based, murine; details: Mus musculus, LL/2, 72 h; Lung Cancer; 10% FBS; 3 days
Experimental: as §1

MC38 = test: Venetoclax cell killing (CellTiter-Glo); type: cell-based, murine; details: Mus musculus, MC-38, 72 h; Colorectal; 10% FBS; 3 days
Experimental: as §1

Renca = test: Venetoclax cell killing (CellTiter-Glo); type: cell-based, murine; details: Mus musculus, 72 h, Renal Adenocarcinoma, 10% FBS, 3 days
Experimental: as §1

EMT6 tumors = test: EMT6 mouse mammary carcinoma syngeneic model; type: in vivo; details: EMT6; venetoclax 50 mg/kg daily for 14 days
Experimental: All experiments were conducted in compliance with the National Institutes of Health Guide for Care and Use of Laboratory Animals guidelines in a facility accredited by the Association for the Assessment and Accreditation of Laboratory Animal Care (AAALAC). BALB/c, C57BL/6, CB6F1 (C57BL/6 bred with BALB/c) and SCID mice were obtained from Charles River (Wilmington, Mass.). SCID mice have severe combined immune deficiency (SCID) and are characterized by an absence of functional T- and B-cells.
EMT6, mouse mammary carcinoma and CT26, mouse colon carcinoma, cell lines were obtained from ATCC (Manassas, Va.). MC38, mouse colon carcinoma cell line was obtained from National Cancer Institute (NCI).
Compound (I),venetoclax, was formulated in 10% ethanol+30% PEG 400+60% Phosal® 50PG. Venetoclax was administered orally once a day for 14 days at 50 mg/kg/day.
1×10^5 CT26, EMT6 or MC38 cells were subcutaneously injected with Matrigel into the flanks of BALB/c, CB6F1 or C57BL/6 mice, respectively. Seven days later, mice were randomized to treatment groups of vehicle, venetoclax, anti-PD-1/PD-L1 or the combination of venetoclax and anti-PD-1/PD-L1. Tumor volume was determined via measurements of the length (L) and width (W) of the tumor with electronic calipers and the volume was calculated according to the following equation: V=L×W2/2 using Study Director Version 2.1.11 (Studylog Systems Inc., South San Francisco). Complete response (CR) was defined as reduction in tumor volume to ≤25 mm^3 over at least 3 successive measurements.

[1] = system: B-lymphocytes and T-cell populations; details: cited from earlier work

CC1(C)CCC(CN2CCN(c3ccc(C(=O)NS(=O)(=O)c4ccc(NCC5CCOCC5)c([N+](=O)[O-])c4)c(Oc4cnc5[nH]ccc5c4)c3)CC2)=C(c2ccc(Cl)cc2)C1 [Compound (I), venetoclax]
IC50 (C32): > 10 µM
IC50 (COLO-320DM): > 10 µM
IC50 (Calu-6): > 10 µM
IC50 (HCT-116): > 10 µM
IC50 (LS411N): 5.1 µM
IC50 (NCI-H1299): > 10 µM
IC50 (NCI-H2009): 4.11 µM
IC50 (NCI-H358): > 10 µM
IC50 (NCI-H522): > 10 µM
IC50 (NCI-H524): > 10 µM
IC50 (NCI-H69): > 10 µM
IC50 (SJSA-1): > 10 µM
IC50 (SW948): > 10 µM
IC50 (4T1): > 10 µM
IC50 (B16F10): > 10 µM
IC50 (B16F1): > 10 µM
IC50 (CT26): > 10 µM
IC50 (EMT6): > 10 µM
IC50 (LL2): > 10 µM
IC50 (MC38): ~10 µM
IC50 (Renca): > 10 µM
anti-tumor activity as single agent (EMT6 tumors): modest activity
reductions in T-cell populations ([1]; Lu et al. 2017, Khaw et al. 2014): up to 30%
reductions in B-lymphocytes ([1]; clinically and in experimental studies): significant reductions
